Source: US9114171B2, “Racecadotril liquid compositions” (McNeil-PPC, Inc., priority 2012, dated 2015)

Columns and labels:
Format in all cases: physicochemical
[1] = Stability of Racecadotril in Buffer
Method: (§1) For comparative purposes, the stability of racecadotril was analyzed when solubilized in pH 4.5 Acetate buffer and pH 4.5 Citrate buffer (Table 4). Test Methods Sample Preparation: • 1. Pipet 1 mL of Racecadotril solution into a 100 mL volumetric flask (V.F.) • 2. Dilute to volume with the same buffer used in the solution preparation. • 3. Further dilute the sample solution to about 0.1 mg/mL if necessary. […] Parameters may be modified to optimize chromatography. • The assay of Racecadotril is determined by using the external standard injected. The degradation products levels are determined by % peak area relative to the Racecadotril peak. Chromatographic Conditions (European Pharmacopoeia Racecadotril Method): […]

[2] = Stability of Racecadotril in Water; details: room temperature and 40° C.
Method: as §1, with “tested at room temperature” for “analyzed when solubilized in pH 4.5 Acetate buffer”, “at 40° C.” for “pH 4.5 Citrate buffer (Table 4).”

[3] = Stability of Racecadotril in Beta-Hydroxypropyl-Cyclodextrin (Beta-HPCD), Table 5
Method: Formulations of racecadotril in beta-hydroxypropyl-cyclodextrin were evaluated (Table 5).
Test Methods Sample Preparation: • 1. Pipet 1 mL of Racecadotril solution into a 100 mL volumetric flask (V.F.) • 2. Dilute to volume with the same buffer used in the solution preparation. • 3. Further dilute the sample solution to about 0.1 mg/mL if necessary. […] Parameters may be modified to optimize chromatography. • The assay of Racecadotril is determined by using the external standard injected. The degradation products levels are determined by % peak area relative to the Racecadotril peak. Chromatographic Conditions (European Pharmacopoeia Racecadotril Method): […]

CC(=O)SCC(Cc1ccccc1)C(=O)NCC(=O)OCc1ccccc1 (racemic) [Racecadotril]
solubility in buffer versus water [1]: more soluble in buffer than in water | stability in buffer versus water ([1]; 40° C. and 4 weeks): more stable in a buffer than in water | racecadotril present ([2]; in water, at 1 week): less than 1% | stability in water [2]: unstable after 12 hours | solubility utilizing Beta-HPCD [3]: higher solubility was achieved utilizing the Beta-HPCD | stability in Beta-HPCD versus buffers alone ([3]; 40° C.): stability is similar to that in buffers alone
